Reference: PubChem BioAssay (NCI)
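All cell lines were grown in 96-well plates and treated with compound for 48 hours. TGI: total growth inhibition.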

Key:
Experiment in all cases: DTP human tumour cell line panel, 48 h
K-562 leukemia = test system: K-562 leukemia
IGROV1 ovarian = test system: IGROV1 ovarian
OVCAR-5 ovarian = test system: OVCAR-5 ovarian
SF-295 CNS = test system: SF-295 CNS
OVCAR-4 ovarian = test system: OVCAR-4 ovarian
RXF 393 renal = test system: RXF 393 renal
MDA-MB-435 = test system: MDA-MB-435
M14 melanoma = test system: M14 melanoma
HL-60(TB) leukemia = test system: HL-60(TB) leukemia
UO-31 renal = test system: UO-31 renal
EKVX NSCLC = test system: EKVX NSCLC
SN12C renal = test system: SN12C renal
DU-145 prostate = test system: DU-145 prostate
RPMI-8226 leukemia = test system: RPMI-8226 leukemia
HCT-15 colon = test system: HCT-15 colon
TK-10 renal = test system: TK-10 renal
SK-OV-3 ovarian = test system: SK-OV-3 ovarian
BT-549 breast = test system: BT-549 breast
NCI/ADR-RES ovarian = test system: NCI/ADR-RES ovarian
786-0 renal = test system: 786-0 renal
CAKI-1 renal = test system: CAKI-1 renal
UACC-257 melanoma = test system: UACC-257 melanoma
MCF7 breast = test system: MCF7 breast
SK-MEL-5 melanoma = test system: SK-MEL-5 melanoma
HCT-116 colon = test system: HCT-116 colon
OVCAR-8 ovarian = test system: OVCAR-8 ovarian
NCI-H460 lung = test system: NCI-H460 lung
MOLT-4 leukemia = test system: MOLT-4 leukemia
PC-3 prostate = test system: PC-3 prostate
HT29 colon = test system: HT29 colon
NCI-H226 lung = test system: NCI-H226 lung
U251 CNS = test system: U251 CNS
SNB-75 CNS = test system: SNB-75 CNS
HOP-62 NSCLC = test system: HOP-62 NSCLC
SW-620 colon = test system: SW-620 colon
CCRF-CEM leukemia = test system: CCRF-CEM leukemia
SF-268 CNS = test system: SF-268 CNS
NCI-H23 lung = test system: NCI-H23 lung
UACC-62 melanoma = test system: UACC-62 melanoma
MALME-3M melanoma = test system: MALME-3M melanoma
KM12 colon = test system: KM12 colon
MDA-MB-231 breast = test system: MDA-MB-231 breast
SR leukemia = test system: SR leukemia
MDA-N = test system: MDA-N
A549 NSCLC = test system: A549 NSCLC
ACHN renal = test system: ACHN renal
COLO 205 colon = test system: COLO 205 colon
LOX IMVI melanoma = test system: LOX IMVI melanoma
HS 578T breast = test system: HS 578T breast
SNB-19 CNS = test system: SNB-19 CNS
OVCAR-3 ovarian = test system: OVCAR-3 ovarian
SK-MEL-28 melanoma = test system: SK-MEL-28 melanoma
HCC-2998 colon = test system: HCC-2998 colon
A498 renal = test system: A498 renal
SF-539 CNS = test system: SF-539 CNS
SK-MEL-2 melanoma = test system: SK-MEL-2 melanoma

Measured: TGI

COc1ccccc1C(C1=C(O)COC1=O)c1cc2c(cc1OC(C)=O)OCO2 (centres undefined)
not listed: SK-MEL-2 melanoma
> 100 µM: all other assays above

CCOP(=O)(OCC)C1CC(O)CN1OC(=O)C(C)(C)C (centres undefined)
not listed: RXF 393 renal | HL-60(TB) leukemia | BT-549 breast | CAKI-1 renal | NCI-H460 lung | HCC-2998 colon | SF-539 CNS
> 100 µM: all other assays above
